Source: patent US10975068B2, “6-aminopyridin-3-yl thiazoles as modulators of RORγT” (Janssen Pharmaceutica NV, priority 2016, dated 2021)

target: human RORγt ligand binding domain (RORγt LBD) (Homo sapiens (Human), UniProt P51449); experiment: RORγt ThermoFluor® assay (thermal shift binding); conditions: read-out: ThermoFluor® Assay, Kd
How it was run: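 Binding was inferred from thermal stabilisation (ΔTm) of the E. coli-expressed RORγt LBD (0.065 mg/mL), monitored by 1,8-ANS (60 μM) emission at 500 nm during a 1 °C/min ramp. Buffer was Hepes 100 mM pH 7.0 with NaCl, GSH and Tween-20.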

human RORγt ligand binding domain (RORγt LBD), sequence (P51449 other isoform, or with tags, fused parts or gaps): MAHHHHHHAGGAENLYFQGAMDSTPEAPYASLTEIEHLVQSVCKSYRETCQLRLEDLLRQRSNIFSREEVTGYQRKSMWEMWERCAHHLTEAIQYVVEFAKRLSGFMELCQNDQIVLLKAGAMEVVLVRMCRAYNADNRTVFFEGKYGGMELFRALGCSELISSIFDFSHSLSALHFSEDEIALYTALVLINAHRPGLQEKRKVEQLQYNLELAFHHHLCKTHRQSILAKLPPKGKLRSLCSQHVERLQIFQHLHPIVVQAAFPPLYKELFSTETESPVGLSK

Compound	Kd
C[C@H]1CCCCN1C(=O)c1nc(C(=O)NCC(C)(C)O)sc1-c1cnc(NC2CCCC2)cc1C(F)(F)F [Example 27, (S)-5-(6-(Cyclopentylamino)-4-(trifluoromethyl)pyridin-3-yl)-N-(2-hydroxy-2-methylpropyl)-4-(2-methylpiperidine-1-carbonyl)thiazole-2-carboxamide]	0.52 nM
C[C@H](Nc1cc(C(F)F)c(-c2sc(C(=O)NCC(C)(C)O)nc2C(=O)N2CCCC[C@@H]2C)cn1)C1CC1 [Example 37, 5-(6-(((S)-1-Cyclopropylethyl)amino)-4-(difluoromethyl)pyridin-3-yl)-N-(2-hydroxy-2-methylpropyl)-4-((S)-2-methylpiperidine-1-carbonyl)thiazole-2-carboxamide]	0.65 nM
C[C@H]1CCCN1C(=O)c1nc(C(=O)NCC(C)(C)O)sc1-c1cnc(NC2CCCC2)cc1C(F)(F)F [Example 38, (S)-5-(6-(Cyclopentylamino)-4-(trifluoromethyl)pyridin-3-yl)-N-(2-hydroxy-2-methylpropyl)-4-(2-methylpyrrolidine-1-carbonyl)thiazole-2-carboxamide]	1.8 nM
C[C@H](Nc1cc(C(F)(F)F)c(-c2sc(C(=O)NCC(C)(C)O)nc2C(=O)N2CCC[C@@H]2C)cn1)C1CC1 [Example 40, 5-(6-(((S)-1-Cyclopropylethyl)amino)-4-(trifluoromethyl)pyridin-3-yl)-N-(2-hydroxy-2-methylpropyl)-4-((S)-2-methylpyrrolidine-1-carbonyl)thiazole-2-carboxamide]	2.8 nM
C[C@H]1CCCCN1C(=O)c1nc(C(=O)NCC(C)(C)O)sc1-c1cnc(NC2CCCC2)cc1C(F)F [Example 41, (S)-5-(6-(Cyclopentylamino)-4-(difluoromethyl)pyridin-3-yl)-N-(2-hydroxy-2-methylpropyl)-4-(2-methylpiperidine-1-carbonyl)thiazole-2-carboxamide]	0.74 nM
C[C@H](Nc1cc(C(F)(F)F)c(-c2sc(C(=O)NCC(C)(C)O)nc2C(=O)N2C3CCC2CC3)cn1)C1CC1 [Example 51, 4-((1s,4s)-7-Azabicyclo[2.2.1]heptane-7-carbonyl)-5-(6-(((S)-1-cyclopropylethyl)amino)-4-(trifluoromethyl)pyridin-3-yl)-N-(2-hydroxy-2-methylpropyl)thiazole-2-carboxamide]	3.2 nM
C[C@H]1CCCN1C(=O)c1nc(C(=O)NCC(C)(C)O)sc1-c1cnc(NC(C)(C)C)cc1C(F)(F)F [Example 52, (S)-5-(6-(tert-Butylamino)-4-(trifluoromethyl)pyridin-3-yl)-N-(2-hydroxy-2-methylpropyl)-4-(2-methylpyrrolidine-1-carbonyl)thiazole-2-carboxamide]	1.2 nM
CC(C)(C)CNc1cc(C(F)F)c(-c2sc(C(=O)NCC(C)(C)O)nc2C(=O)N2C3CCC2CC3)cn1 [Example 116, 4-((1s,4s)-7-Azabicyclo[2.2.1]heptane-7-carbonyl)-5-(4-(difluoromethyl)-6-(neopentylamino)pyridin-3-yl)-N-(2-hydroxy-2-methylpropyl)thiazole-2-carboxamide]	3.6 nM
CC(C)(O)CNC(=O)c1nc(C(=O)N2C3CCC2CC3)c(-c2cnc(NCC(C)(C)C(F)(F)F)cc2C(F)(F)F)s1 [Example 122, 4-((1s,4s)-7-Azabicyclo[2.2.1]heptane-7-carbonyl)-N-(2-hydroxy-2-methylpropyl)-5-(6-((3,3,3-trifluoro-2,2-dimethylpropyl)amino)-4-(trifluoromethyl)pyridin-3-yl)thiazole-2-carboxamide]	1.7 nM
CC(C)(O)CNC(=O)c1nc(C(=O)N2C3CCC2CC3)c(-c2cnc(NC3(C)CCC3)cc2C(F)(F)F)s1 [Example 140, 4-((1s,4s)-7-Azabicyclo[2.2.1]heptane-7-carbonyl)-N-(2-hydroxy-2-methylpropyl)-5-(6-((1-methylcyclobutyl)amino)-4-(trifluoromethyl)pyridin-3-yl)thiazole-2-carboxamide]	1.7 nM
CC(C)(O)CNC(=O)c1nc(C(=O)N2C3CCC2CC3)c(-c2cnc(NC3(C)CCC3)cc2C(F)F)s1 [Example 169, 4-((1s,4s)-7-Azabicyclo[2.2[1]heptane-7-carbonyl)-5-(4-(difluoromethyl)-6-((1-methylcyclobutyl)amino)pyridine-3-yl)-N-(2-hydroxy-2-methylpropyl))thiazole-2-carboxamide]	2.7 nM

More lines, now with the values ahead:

Kd	Compound
2.6 nM	CC[C@H](Nc1cc(C(F)(F)F)c(-c2sc(C(=O)NCC(C)(C)O)nc2C(=O)N2CCC[C@@H]2C)cn1)C1CC1 (relative stereo) [Example 128, 5-(6-(((S*)-1-Cyclopropylpropyl)amino)-4-(trifluoromethyl)pyridin-3-yl)-N-(2-hydroxy-2-methylpropyl)-4-((S)-2-methylpyrrolidine-1-carbonyl)thiazole-2-carboxamide]
7.3 nM	C[C@H]1CCCN1C(=O)c1nc(C(=O)NC[C@@H](O)C(C)(C)O)sc1-c1cnc(NC(C)(C)C)cc1C(F)(F)F (single isomer, unassigned) [Example 243, 5-(6-(tert-Butylamino)-4-(trifluoromethyl)pyridin-3-yl)-N—((R*)-2,3-dihydroxy-3-methylbutyl)-4-((S)-2-methylpyrrolidine-1-carbonyl)thiazole-2-carboxamide]
0.5 nM	C[C@H](Nc1cc(C(F)(F)F)c(-c2sc(C(=O)NCC(C)(C)O)nc2C(=O)N2CCCC[C@@H]2C)cn1)C(F)(F)F [Example 47, N-(2-Hydroxy-2-methylpropyl)-4-((S)-2-methylpiperidine-1-carbonyl)-5-(4-(trifluoromethyl)-6-(((S)-1,1,1-trifluoropropan-2-yl)amino)pyridin-3-yl)thiazole-2-carboxamide]
3.2 nM	C[C@H](Nc1cc(C(F)(F)F)c(-c2sc(C(=O)NCC(C)(C)O)nc2C(=O)N2CCC[C@@H]2C)cn1)C(F)(F)F [Example 78, N-(2-Hydroxy-2-methylpropyl)-4-((S)-2-methylpyrrolidine-1-carbonyl)-5-(4-(trifluoromethyl)-6-(((S)-1,1,1-trifluoropropan-2-yl)amino)pyridin-3-yl)thiazole-2-carboxamide]
0.17 nM	C[C@H]1CCCCN1C(=O)c1nc(C(=O)NCC(C)(C)O)sc1-c1cnc(NCC(C)(C)C)cc1C(F)(F)F [Example 86, (S)—N-(2-Hydroxy-2-methylpropyl)-4-(2-methylpiperidine-1-carbonyl)-5-(6-(neopentylamino)-4-(trifluoromethyl)pyridin-3-yl)thiazole-2-carboxamide]
1.3 nM	C[C@H]1CCCN1C(=O)c1nc(C(=O)NCC(C)(C)O)sc1-c1cnc(NCC(C)(C)C)cc1C(F)(F)F [Example 87, (S)—N-(2-Hydroxy-2-methylpropyl)-4-(2-methylpyrrolidine-1-carbonyl)-5-(6-(neopentylamino)-4-(trifluoromethyl)pyridin-3-yl)thiazole-2-carboxamide]
1.4 nM	CC[C@H](Nc1cc(C(F)F)c(-c2sc(C(=O)NCC(C)(C)O)nc2C(=O)N2CC(F)(F)C[C@@H]2C)cn1)C(F)(F)F [Example 90, 4-((S)-4,4-Difluoro-2-methylpyrrolidine-1-carbonyl)-5-(4-(difluoromethyl)-6-(((S)-1,1,1-trifluorobutan-2-yl)amino)pyridin-3-yl)-N-(2-hydroxy-2-methylpropyl)thiazole-2-carboxamide]
1.8 nM	CC[C@H](Nc1cc(C(F)(F)F)c(-c2sc(C(=O)NCC(C)(C)O)nc2C(=O)N2CCC[C@@H]2C)cn1)C(F)(F)F [Example 111, N-(2-Hydroxy-2-methylpropyl)-4-((S)-2-methylpyrrolidine-1-carbonyl)-5-(6-(((S)-1,1,1-trifluorobutan-2-yl)amino)-4-(trifluoromethyl)pyridin-3-yl)thiazole-2-carboxamide]
1.9 nM	C[C@H]1CC(F)(F)CN1C(=O)c1nc(C(=O)NCC(C)(C)O)sc1-c1cnc(NCC(C)(C)C)cc1C(F)F [Example 115, (S)-4-(4,4-Difluoro-2-methylpyrrolidine-1-carbonyl)-5-(4-(difluoromethyl)-6-(neopentylamino)pyridin-3-yl)-N-(2-hydroxy-2-methylpropyl)thiazole-2-carboxamide]
0.52 nM	C[C@H]1CC(F)(F)CN1C(=O)c1nc(C(=O)NCC(C)(C)O)sc1-c1cnc(NC2(C(F)(F)F)CCC2)cc1C(F)F [Example 124, (S)-4-(4,4-Difluoro-2-methylpyrrolidine-1-carbonyl)-5-(4-(difluoromethyl)-6-((1-(trifluoromethyl)cyclobutyl)amino)pyridin-3-yl)-N-(2-hydroxy-2-methylpropyl)thiazole-2-carboxamide]
3.5 nM	C[C@H](Nc1cc(C(F)F)c(-c2sc(C(=O)NCC(C)(C)O)nc2C(=O)N2CC(F)(F)C[C@@H]2C)cn1)C(F)(F)F [Example 135]
0.68 nM	C[C@H]1CC(F)(F)CN1C(=O)c1nc(C(=O)NCC(C)(C)O)sc1-c1cnc(NC2(C)CCC2)cc1C(F)(F)F [Example 141, (S)-4-(4,4-Difluoro-2-methylpyrrolidine-1-carbonyl)-N-(2-hydroxy-2-methylpropyl)-5-(6-((1-methylcyclobutyl)amino)-4-(trifluoromethyl)pyridin-3-yl)thiazole-2-carboxamide]
1.4 nM	C[C@H](Nc1cc(C(F)(F)F)c(-c2sc(C(=O)NCC(C)(C)O)nc2C(=O)N2CC(F)(F)C[C@@H]2C)cn1)C1CC1 [Example 142, 5-(6-(((S)-1-Cyclopropylethyl)amino)-4-(trifluormethyl)pyridin-3-yl)-4-((S)-4,4-difluoro-2-methylpyrrolidine-1-carbonyl)-N-(2-hydroxy-2-methylpropyl)thiazole-2-carboxamide]
1.5 nM	C[C@H](Nc1cc(C(F)F)c(-c2sc(C(=O)NCC(C)(C)O)nc2C(=O)N2CCCC[C@@H]2C)cn1)C(F)(F)F [Example 144]
1.7 nM	C[C@H](NC(=O)c1nc(C(=O)N2CC(F)(F)C[C@@H]2C)c(-c2cnc(N[C@@H](C)C(F)(F)F)cc2C(F)F)s1)C(C)(C)O [Example 197]
